In patent US10633419B2, “Immunomodulators” (BRISTOL-MYERS SQUIBB COMPANY, priority 2014, dated 2020):
Starred links: 1 amine or outer side, 2 acyl side, 3 side chain; linkers in the order of their positions; H or OH if unused. Positions of bridges follow the written chain, without caps; N, C: chain ends. Non-standard residues stand in square brackets, D forms with d. Residues, ends and D or L forms follow the SMILES beside them. ξ: configuration not given here. *: point of attachment. X31 = CCCCCCCCCCCCCCCC(=O)NCCCC[C@H](NC(=O)[C@H](CC(=O)O)CC(=O)CCOCCOCCOCCOCCOCCOCCN*)C(N)=O; X4 = O=C(O)CCCCCCCCCCCCCCCCC(=O)N[C@@H](CC(=O)NCCCOCCOCCOCCCN*)C(=O)O; X18 = O=C(O)CCCCCCCCCCCCCCC(=O)N[C@@H](CC(=O)NCCCOCCOCCOCCCN*)C(=O)O; X11 = O=C(O)CCCCCCCCCCCCC(=O)N[C@@H](CCC(=O)NCCCOCCOCCOCCCN*)C(=O)O; Trp(1-CH2COOH) = N[C@@H](Cc1cn(CC(=O)O)c2ccccc12)C(=O)O; X19 = O=C(C1C[C@H](O)CN1[*:1])[*:2]; Palmitoyl = CCCCCCCCCCCCCCCC(=O)*; Hyp = O=C(O)[C@@H]1C[C@@H](O)CN1; NHhexadecyl = CCCCCCCCCCCCCCCCN*; Undecanoyl = CCCCCCCCCCC(=O)*; NMeNle = CCCC[C@H](NC)C(=O)O; NMeA = CN[C@@H](C)C(=O)O; Dab = NCC[C@H](N)C(=O)O; Dap = NC[C@H](N)C(=O)O; ξC = NC(CS)C(=O)O

Target: T1, PD-L1 (Homo sapiens, UniProt Q9NZQ7)
T1 construct: hPDL1(19-239)-TVMV-His; made in house; host or cells: HEK293T
Experiment: PD-1/PD-L1 Homogenous Time-Resolved Fluorescence (HTRF) binding assay (PD-1-Ig/PD-L1-His)
Conditions: inhibition of PD-1-Ig binding to PD-L1-TVMV-His; value given as range class; read-out: HTRF IC50
Procedure, shortened: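 Inhibitors pre-incubated 15 min with PD-L1-His (10 nM final), then PD-1-Ig (20 nM final) added for 15 min in dPBS/0.1% BSA/0.05% Tween-20. Eu-cryptate anti-Ig (1 nM) and APC anti-His (20 nM) added, 30 min equilibration, 665/620 nm HTRF ratio read.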

T1 sequence (Q9NZQ7 with tags, fused parts or gaps): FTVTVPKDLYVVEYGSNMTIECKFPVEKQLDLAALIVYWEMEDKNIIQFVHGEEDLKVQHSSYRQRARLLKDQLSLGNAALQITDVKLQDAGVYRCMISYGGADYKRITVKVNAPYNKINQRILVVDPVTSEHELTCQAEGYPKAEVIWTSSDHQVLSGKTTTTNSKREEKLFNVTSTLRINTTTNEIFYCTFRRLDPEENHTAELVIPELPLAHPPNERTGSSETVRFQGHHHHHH

SMILES | IC50
CCCC[C@H]1C(=O)N(C)[C@@H](CCCC)C(=O)N[C@@H](CC(C)C)C(=O)N[C@H](C(=O)NCC(=O)N[C@@H](CCC(=O)O)C(=O)NCCCOCCOCCOCCCNC(=O)CC[C@H](NC(=O)CCCCCCCCCCCCC(=O)O)C(=O)O)CSCC(=O)N[C@@H](Cc2ccc(O)cc2)C(=O)N(C)[C@@H](C)C(=O)N[C@@H](CC(N)=O)C(=O)N2CCC[C@H]2C(=O)N[C@@H](CN)C(=O)N[C@@H](CC(C)C)C(=O)N2C[C@H](O)C[C@H]2C(=O)N[C@@H](Cc2c[nH]c3ccccc23)C(=O)N[C@@H](CCN)C(=O)N[C@@H](Cc2cn(CC(=O)O)c3ccccc23)C(=O)N1C [Example 11253] ({CH2CO}-Y[NMeA]NP[Dap]L[Hyp]W[Dab][Trp(1-CH2COOH)][NMeNle][NMeNle]LCGE-X11; thioether N-14) | 0.3 to 9.9 nM
CCCC[C@H]1C(=O)N(C)[C@@H](CCCC)C(=O)N[C@@H](CC(C)C)C(=O)N[C@H](C(=O)NCC(=O)NCCCOCCOCCOCCCNC(=O)CC[C@H](NC(=O)CCCCCCCCCCCCC(=O)O)C(=O)O)CSCC(=O)N[C@@H](Cc2ccc(O)cc2)C(=O)N(C)[C@@H](C)C(=O)N[C@@H](CC(N)=O)C(=O)N2CCC[C@H]2C(=O)N[C@@H](CN)C(=O)N[C@@H](CC(C)C)C(=O)N2C[C@H](O)C[C@H]2C(=O)N[C@@H](Cc2c[nH]c3ccccc23)C(=O)N[C@@H](CCN)C(=O)N[C@@H](Cc2cn(CC(=O)O)c3ccccc23)C(=O)N1C [Example 11260] ({CH2CO}-Y[NMeA]NP[Dap]L[Hyp]W[Dab][Trp(1-CH2COOH)][NMeNle][NMeNle]LCG-X11; thioether N-14) | 0.3 to 9.9 nM
CCCC[C@H]1C(=O)N(C)[C@@H](CCCC)C(=O)N[C@@H](CC(C)C)C(=O)N[C@H](C(=O)NCCCOCCOCCOCCCNC(=O)C[C@H](NC(=O)CCCCCCCCCCCCCCCCC(=O)O)C(=O)O)CSCC(=O)N[C@@H](Cc2ccc(O)cc2)C(=O)N(C)[C@@H](C)C(=O)N[C@@H](CC(N)=O)C(=O)N2CCC[C@H]2C(=O)N[C@@H](CN)C(=O)N[C@@H](CC(C)C)C(=O)N2C[C@H](O)C[C@H]2C(=O)N[C@@H](Cc2c[nH]c3ccccc23)C(=O)N[C@@H](CCN)C(=O)N[C@@H](Cc2cn(CC(=O)O)c3ccccc23)C(=O)N1C [Example 11258] ({CH2CO}-Y[NMeA]NP[Dap]L[Hyp]W[Dab][Trp(1-CH2COOH)][NMeNle][NMeNle]LC-X4; thioether N-14) | 10 to 99 nM
CCCC[C@H]1C(=O)N(C)[C@@H](CCCC)C(=O)N[C@@H](CC(C)C)C(=O)N[C@H](C(=O)NCC(=O)N[C@@H](Cc2cn(CCOCCOCCOCCOCCOCCOCCOCCOCCOCCOCCOCCNC(=O)CCCNC(=O)CCCCCCCCCCCCCCCCC(=O)O)nn2)C(=O)O)CSCC(=O)N[C@@H](Cc2ccc(O)cc2)C(=O)N(C)[C@@H](C)C(=O)N[C@@H](CC(N)=O)C(=O)N2CCC[C@H]2C(=O)N[C@@H](CN)C(=O)N[C@@H](CC(C)C)C(=O)N2C[C@H](O)C[C@H]2C(=O)N[C@@H](Cc2c[nH]c3ccccc23)C(=O)N[C@@H](CCN)C(=O)N[C@@H](Cc2cn(CC(=O)O)c3ccccc23)C(=O)N1C [Example 14125] | 0.3 to 9.9 nM
CCCCCCCCCCCCCCCC(=O)NCCCC[C@H](NC(=O)[C@@H]1CSCC(=O)N[C@@H](Cc2ccc(O)cc2)C(=O)N(C)[C@@H](C)C(=O)N[C@@H](CC(N)=O)C(=O)N2CCC[C@H]2C(=O)N[C@@H](CCN)C(=O)N[C@@H](CC(C)C)C(=O)N2C[C@H](O)C[C@H]2C(=O)N[C@@H](Cc2c[nH]c3ccccc23)C(=O)N[C@@H](CO)C(=O)N[C@@H](Cc2c[nH]c3ccccc23)C(=O)N(C)[C@@H](CCCC)C(=O)N(C)[C@@H](CCCC)C(=O)N[C@@H](CCCNC(=N)N)C(=O)N1)C(N)=O [Example 11019] ({CH2CO}-Y[NMeA]NP[Dab]L[Hyp]WSW[NMeNle][NMeNle]RCK(Palmitoyl)-NH2; thioether N-14) | 100 to 1600 nM
CCCCCCCCCCC(=O)NCCCC[C@H](NC(=O)[C@H](CC(=O)O)NC(=O)CNC(=O)[C@@H]1CSCC(=O)N[C@@H](Cc2ccc(O)cc2)C(=O)N(C)[C@@H](C)C(=O)N[C@@H](CC(=O)O)C(=O)N2CCC[C@H]2C(=O)N[C@@H](Cc2cnc[nH]2)C(=O)N[C@@H](CC(C)C)C(=O)N2C[C@H](O)C[C@H]2C(=O)N[C@@H](Cc2c[nH]c3ccccc23)C(=O)N[C@@H](CO)C(=O)N[C@@H](Cc2c[nH]c3ccccc23)C(=O)N(C)[C@@H](CCCC)C(=O)N(C)[C@@H](CCCC)C(=O)N[C@@H](CCCNC(=N)N)C(=O)N1)C(N)=O [Example 11006] ({CH2CO}-Y[NMeA]DPHL[Hyp]WSW[NMeNle][NMeNle]RCGDK(Undecanoyl)-NH2; thioether N-14) | 10 to 99 nM
CCCCCCCCCCCCCCCC(=O)NCCCC[C@H](NC(=O)[C@H](CC(=O)O)CC(=O)CCOCCOCCOCCOCCOCCOCCNC(=O)[C@H](CC(=O)O)NC(=O)CNC(=O)C1CSCC(=O)N[C@@H](Cc2ccc(O)cc2)C(=O)N(C)[C@@H](C)C(=O)N[C@@H](CC(=O)O)C(=O)N2CCC[C@H]2C(=O)N[C@@H](Cc2cnc[nH]2)C(=O)N[C@@H](CC(C)C)C(=O)N2C[C@H](O)C[C@H]2C(=O)N[C@@H](Cc2c[nH]c3ccccc23)C(=O)N[C@@H](CO)C(=O)N[C@@H](Cc2c[nH]c3ccccc23)C(=O)N(C)[C@@H](CCCC)C(=O)N(C)[C@@H](CCCC)C(=O)N[C@@H](CCCNC(=N)N)C(=O)N1)C(N)=O (stereo partly shown) [Example 11018] ({CH2CO}-Y[NMeA]DPHL[Hyp]WSW[NMeNle][NMeNle]R[ξC]GD-X31; thioether N-14) | 10 to 99 nM
CCCCCCCCCCCCCCCCNC(=O)CNC(=O)CNC(=O)[C@@H]1CSCC(=O)N[C@@H](Cc2ccc(O)cc2)C(=O)N(C)[C@@H](C)C(=O)N[C@@H](CC(N)=O)C(=O)N2CCC[C@H]2C(=O)N[C@@H](CCN)C(=O)N[C@@H](CC(C)C)C(=O)N2C[C@H](O)C[C@H]2C(=O)N[C@@H](Cc2c[nH]c3ccccc23)C(=O)N[C@@H](CO)C(=O)N[C@@H](Cc2c[nH]c3ccccc23)C(=O)N(C)[C@@H](CCCC)C(=O)N(C)[C@@H](CCCC)C(=O)N[C@@H](CCCNC(=N)N)C(=O)N1 [Example 11104] ({CH2CO}-Y[NMeA]NP[Dab]L[Hyp]WSW[NMeNle][NMeNle]RCGG-NHhexadecyl; thioether N-14) | 100 to 1600 nM
CCCC[C@H]1C(=O)N(C)[C@@H](CCCC)C(=O)N[C@@H](CC(C)C)C(=O)N[C@@H](C(=O)N[C@@H](CC(=O)O)C(=O)N[C@@H](CCC(=O)NCCCOCCOCCOCCCNC(=O)C[C@H](NC(=O)CCCCCCCCCCCCCCC(=O)O)C(=O)O)C(=O)O)CSCC(=O)N[C@@H](Cc2ccc(O)cc2)C(=O)N(C)[C@@H](C)C(=O)N[C@@H](CC(N)=O)C(=O)N2CCC[C@@H]2C(=O)N[C@@H](CN)C(=O)N[C@@H](CC(C)C)C(=O)N2C[C@@H](O)CC2C(=O)N[C@@H](Cc2c[nH]c3ccccc23)C(=O)N[C@@H](CCN)C(=O)N[C@@H](Cc2cn(CC(=O)O)c3ccccc23)C(=O)N1C (stereo partly shown) [Example 11245] ({CH2CO}-Y[NMeA]N[dP][Dap]L[X19]W[Dab][Trp(1-CH2COOH)][NMeNle][NMeNle]L[dC]DE(X18)-OH; thioether N-14) | 10 to 99 nM
CCCC[C@H]1C(=O)N(C)[C@@H](CCCC)C(=O)N[C@@H](CCC(=O)O)C(=O)N[C@H](C(=O)NCC(=O)N[C@@H](Cc2cn(CC[C@H](NC(=O)CCCCCCCCCCCCCCC(=O)O)C(=O)O)nn2)C(N)=O)CSCC(=O)N[C@@H](Cc2ccc(O)cc2)C(=O)N(C)[C@@H](C)C(=O)N[C@@H](CC(=O)O)C(=O)N2CCC[C@H]2C(=O)N[C@@H](Cc2c[nH]cn2)C(=O)N[C@@H](CCCCN)C(=O)N2C[C@H](O)C[C@H]2C(=O)N[C@@H](Cc2c[nH]c3ccccc23)C(=O)N[C@@H](CCCCN)C(=O)N[C@@H](Cc2cn(CC(=O)O)c3ccccc23)C(=O)N1C [Example 14075] | 10 to 99 nM
